Results from patent US7332482B2, “Method for treating benign prostatic hyperplasia” (BioXell S.p.A., priority 2003, dated 2008).
“Also recorded” adds a separate entry of the source.

How the values were obtained:
5α reductase type 1 = target: T1, 5α reductase type 1 (Homo sapiens, UniProt P18405); assay: 5α reductase inhibition test in CHO 1827 cells; type: cell-based; conditions: 10^−9 to 10^−5 M
T1 construct: host or cells: CHO 1827
T1 sequence (P18405 1-259): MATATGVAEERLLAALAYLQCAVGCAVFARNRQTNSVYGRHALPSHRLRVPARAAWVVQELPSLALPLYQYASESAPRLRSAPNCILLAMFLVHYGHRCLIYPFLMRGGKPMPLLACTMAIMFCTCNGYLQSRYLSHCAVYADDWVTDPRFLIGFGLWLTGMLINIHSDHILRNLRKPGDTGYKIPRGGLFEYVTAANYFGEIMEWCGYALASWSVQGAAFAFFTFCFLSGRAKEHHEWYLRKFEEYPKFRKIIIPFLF
Protocol: CHO-1827 and CHO-1829 cells, transfected with 5α reductase type 1 (5αR-1) or type 2 (5αR-2), respectively (see Steers W. Urology (2001) 58 p 17-24), were maintained in Ham's F12 medium supplemented with 5% FCS.
5α reductase inhibition assay was performed using CHO 1827 cells, transfected with 5αR-1, or CHO 1829 cells, transfected with 5αR-2, as described (see Guarna A, et al. Journal of Medicinal Chemistry (2000) 43 3718-3735.). Compound A was added in a concentration range from 10^−9 to 10^−5 M, using finasteride as a control inhibitor in each experiment.

AR [1] = target: T2, AR (Homo sapiens, UniProt P10275); assay: [3H]R1881 binding assay on cytosol fractions of BPH fragments; design: from tissue; host or cells: human BPH prostatic tissue, cytosol fraction
T2 sequence (P10275 1-920): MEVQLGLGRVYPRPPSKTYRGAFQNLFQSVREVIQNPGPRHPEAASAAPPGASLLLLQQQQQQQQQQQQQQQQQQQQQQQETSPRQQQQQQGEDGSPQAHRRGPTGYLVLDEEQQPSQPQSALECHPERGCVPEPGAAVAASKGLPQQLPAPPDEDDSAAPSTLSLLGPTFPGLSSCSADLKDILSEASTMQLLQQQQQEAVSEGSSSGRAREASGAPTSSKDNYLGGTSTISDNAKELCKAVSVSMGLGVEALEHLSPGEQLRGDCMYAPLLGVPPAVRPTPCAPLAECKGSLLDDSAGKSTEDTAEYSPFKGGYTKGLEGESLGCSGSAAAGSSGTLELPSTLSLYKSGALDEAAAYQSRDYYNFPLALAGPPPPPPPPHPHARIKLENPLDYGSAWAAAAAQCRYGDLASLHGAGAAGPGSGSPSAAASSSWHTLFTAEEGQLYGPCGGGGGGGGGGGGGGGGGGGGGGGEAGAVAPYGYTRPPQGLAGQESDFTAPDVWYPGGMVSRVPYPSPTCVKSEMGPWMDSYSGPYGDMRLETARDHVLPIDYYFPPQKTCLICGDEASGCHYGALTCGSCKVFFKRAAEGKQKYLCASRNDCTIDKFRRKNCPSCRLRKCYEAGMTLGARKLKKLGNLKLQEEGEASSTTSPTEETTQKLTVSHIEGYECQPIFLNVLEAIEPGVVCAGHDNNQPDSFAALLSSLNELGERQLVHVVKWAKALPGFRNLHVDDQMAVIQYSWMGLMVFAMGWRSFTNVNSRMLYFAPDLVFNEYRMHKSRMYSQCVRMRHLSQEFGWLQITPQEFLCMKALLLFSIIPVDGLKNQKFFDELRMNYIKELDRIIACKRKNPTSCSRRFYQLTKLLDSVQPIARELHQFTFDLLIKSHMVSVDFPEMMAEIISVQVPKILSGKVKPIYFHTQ
Protocol: Prostatic tissues for binding assay were obtained from patients who underwent suprapubic adenomectomy for BPH. No pharmacological treatment was performed in the 3 months preceding surgery. After surgery, the tissues were immediately placed in liquid nitrogen and stored at −80° C. until processing.
Protein content was determined by the known method of Bradford, using BSA as a standard.

[2] = Serum calcium measurement in rats; type: in vivo, rat; conditions: for calcemia: T-replaced castrated rats
Protocol: Male Sprague Dawley rats (28 days old) were purchased from Charles River Laboratories (Calco, Lecco, Italy). All animal experimentation described was conducted in accord with accepted standards of animal care. Castration was performed via the scrotal route under ketamine/xylazine anaesthesia.
Serum calcium levels were measured with a commercially available colorimetric assay (Sigma), according to the manufacturers' instructions.

rat ventral prostate = assay: Clusterin expression (Northern, immunohistochemistry) and TUNEL in rat ventral prostate; type: in vivo
Protocol: Total RNA was extracted using RNAFast from Molecular System (San Diego, Calif.). Blotting, labelling, hybridization conditions and probes (rat clusterin 1.5 Kb full-length cDNA and GAPDH 1.2 Kb full-length cDNA) were performed according to the reported procedures (Bettuzzi et al, Biochemical Journal, (1989), 257, p 293-296 and Marinelli et al, Biochemistry and Cell Biology, (1994), 72, p 515-521). Quantitation of the autoradiograms was obtained by densitometric scanning using an LKB Ultrascan XL densitometer.
All the cryostatic sections obtained from controls and treated rats were processed in parallel as previously described (Astancolle et al, Journal of Endocrinology, (2000), 167, p 197-204). For every experimental condition, 3 alternate sections from 3 different rat prostates were examined. […] Counterstaining was performed with haematoxylin, and cover slips were mounted with Eukitt (O. Kindler GmbH & Co, Germany). Digital high-magnification colour images were acquired by a CCD camera through the microscope.
DNA fragmentation in prostate cryostatic sections, assessed by terminal deoxynucleotidyl transferase (TdT)-mediated dUTP nick end-labelling (TUNEL), was performed using the In Situ Cell Death Detection Kit (POD, Roche) as recommended by the manufacturer. TUNEL positive apoptotic nuclei were documented by digital high-magnification colour images acquired by a CCD camera through the microscope. Counterstaining was performed with eosin, and cover slips were mounted with Eukitt (O Kindler GmbH & Co, Germany).

AR [3] = target: T2, AR; assay: Luciferase assay in AR-transfected PC3 cells; type: cell-based; design: In PC3 cells expressing the full length AR coupled to a luciferase report gene; expressed in transfected cells; host or cells: PC3 (AR-deficient human prostate adenocarcinoma), stably transfected with p5HbhAR-A; conditions: increasing concentrations, alone or with DHT 3 nM
Protocol: PC3 cells stably transfected with human AR were plated in 24-well plates at a density of 2×10^4 in Ham's F12 plus 10% FCS. […] Transfected cells incubated with ethanol only served as positive controls.
The Luciferase assay was performed with a Berthold luminometer according to the manufacturer's instructions (Luciferase Assay System, Promega, Milan, Italy). The cells were lysed directly in the plate with 200 μl of lysis buffer. Luciferase activity was measured on 20 μl of cell lysate for 10 s after addition of 100 μl of luciferine. Total protein measurement was performed on 20 μl of cell lysate. At least three independent assays were done in duplicate.

In the case of `C=C1/C(=C\C=C2/CCC[C@]3(C)C([C@@H](C)C/C=C/C(O)(CC)CC)=CC[C@@H]23)C[C@@H](O)C[C@@H]1F` [Compound A, 1-alpha-fluoro-25-hydroxy-16,23E-diene-26,27-bishomo-20-epi-cholecalciferol], the “interference with 5α reductase type 1” value (5α reductase type 1) is reported as “did not interfere with either isoenzyme up to the micromolar range”, the Kd (AR [1]) is reported as > 100 µM and the “competition for [3H]-R1881 binding” value (AR [1]; human BPH homogenates, 10^−10-10^−4 M) is reported as “did not compete”. The calcemia ([2]; 10 μg/Kg) was 10.16 ± 0.24 mg/dL, the calcemia ([2]; 30 μg/Kg) was 9.87 ± 0.15 mg/dL and the calcemia ([2]; 100 μg/Kg) was 10.55 ± 0.18 mg/dL. For the same molecule, the calcemia ([2]; 300 μg/Kg) was 10.85 ± 0.1 mg/dL, the other side effects ([2]; all rat protocols, oral) was “No other discernible side effects” and the hypercalcemia ([2]; all rat protocols, oral 10-300 μg/Kg) was “very modest hypercalcemia only at the highest dose tested”. The “DNA fragmentation / apoptosis in ventral prostate (TUNEL)” value (rat ventral prostate; castrated T-supplemented rats, 100 and 300 μg/Kg, 9 administrations) was “induced an evident nuclear fragmentation in epithelial and stromal cells; also recorded: induced massive apoptosis in the majority of epithelial and stromal cells”, the “clusterin staining and apoptosis in prostate (immunohistochemistry, TUNEL)” value (rat ventral prostate; intact adult rats, Compound A 10, 30, 100 μg/Kg, finasteride 40 mg/Kg) was “induced clusterin expression; also recorded: dose-dependently stained for clusterin” and the “clusterin mRNA expression in ventral prostate (Northern)” value (rat ventral prostate; intact rats, one month, 30 and 100 μg/Kg) was “induced a sustained increase”. For the same molecule, the “clusterin mRNA expression in ventral prostate (Northern)” value (rat ventral prostate; orchidectomized T-supplemented rats, Compound A 300 and 100 μg/Kg, F 40 mg/Kg) was “partially blunted the T-induced down-regulation of clusterin gene expression” and the “effect on AR-mediated luciferase activity (agonist/antagonist)” value (AR [3]) was “neither stimulated nor inhibited”.
